Tests used:
[1] = Solid stability test of the polymorph A (XRPD); assay type: physicochemical
Protocol: According to the “Guidelines for the Stability Test of Active Pharmaceutical Ingredients and Preparations” (Chinese Pharmacopoeia, 2015, Part IV, General Chapter 9001), the stability of the polymorph A of the compound of formula (I) was investigated under the conditions of high temperature (60° C., open), high humidity (room temperature/relative humidity of 92.5%, open), high temperature and high humidity (40° C., 75% RH; 60° C., 75% RH) and strong light (total illumination of 1.2×10^6 Lux·hr/near ultraviolet 200 w·hr/m^2, sealed).
15 mg of the polymorph A of the compound of formula (I) was weighed, placed on the bottom of a glass sample bottle, and spread into a thin layer. The sample placed under high temperature and high humidity was sealed with aluminum foil paper, and some small holes were pierced in the aluminum foil paper to ensure that the sample can fully contact with the ambient air; The samples placed under strong light conditions were sealed with screw caps. The samples placed under different conditions were sampled and tested (XRPD) on day 5 and day 10. The test results were compared with the initial test results on day 0.

[2] = system: human multiple myeloma cells MM.1S xenograft (CDX); assay: In vivo pharmacodynamic study in MM.1S xenograft (CDX) model
Protocol: CB-17 SCID mice, female, 6 weeks to 8 weeks old, weight of about 17 grams to 20 grams. The mice were kept in a special pathogen-free environment and in a single ventilated cage (4 mice per cage). All cages, bedding and water were disinfected before use. All animals had free access to standard certified commercial laboratory food. A total of 64 mice purchased from Beijing Vital River Co., Ltd. were used for study. 0.2 mL of 5×10^6 MM.1S cells were subcutaneously inoculated on the right back of each mouse for tumor growth. The experiment was performed when the average tumor volume reached about 100 cubic millimeters to 150 cubic millimeters.
In vivo selective experiments were performed on CB-17 SCID mice implanted subcutaneously with human multiple myeloma cells MM.1S xenograft (CDX). The polymorph A of the compound of formula (I) was formulated with a mixed solution of 5% of dimethyl sulfoxide and 95% of 10% hydroxypropyl-β-cyclodextrin into a formulation to be administered orally for 5 days and stopped for 2 days. Ixazomib was administered once on the first day and fourth day of each week, respectively. The tumor volume was measured with a two-dimensional caliper twice a week, and the volume was measured in cubic millimeters and calculated by the following formula: V=0.5 a*b^2, in which a and b were the long diameter and short diameter of the tumor, respectively. The anti-tumor efficacy was determined by dividing the average tumor increase volume of animals treated with the compound by the average tumor increase volume of untreated animals.

[3] = Solid stability test of the polymorph A (XRPD); assay type: physicochemical; details: High temperature and high humidity (40° C., 75% RH; 60° C., 75% RH), 1 month

## O=C(NO)c1ccc(CNC(=O)c2ccc(C3(c4ccc(F)cc4)CCCO3)cn2)cc1 (centres unmarked)
[1]; Day 0, initial (XRPD)
  Polymorph: Polymorph A
[1]; High humidity (room temperature/relative humidity of 92.5%, open), Day 5
  Polymorph: Polymorph A
[1]; High humidity (room temperature/relative humidity of 92.5%, open), Day 10
  Polymorph: Polymorph A
[1]; High temperature (60° C., open), Day 5
  Polymorph: Polymorph A
[1]; High temperature (60° C., open), Day 10
  Polymorph: Polymorph A
[1]; High temperature and high humidity (40° C., 75% RH; 60° C., 75% RH), Day 10
  Polymorph: Polymorph A
[1]; Strong light (5000 lx, sealed), Day 5
  Polymorph: Polymorph A
[1]; Strong light (5000 lx, sealed), Day 10
  Polymorph: Polymorph A
[1]; high temperature, high humidity, high temperature and high humidity, and strong light
  Solid stability (conclusion): good stability
[1]; light, heat and humidity, technical effects statement
  Stability (general statement): stable, less affected by light, heat and humidity
[2]; 75 mg/kg oral, administration for 5 days and drug withdrawal for 2 days, Day 0
  Tumor volume: 134 mm^3
[2]; 75 mg/kg oral, administration for 5 days and drug withdrawal for 2 days, Day 3
  Tumor volume: 165 mm^3
[2]; 75 mg/kg oral, administration for 5 days and drug withdrawal for 2 days, Day 5
  Tumor volume: 319 mm^3
[2]; 75 mg/kg oral, administration for 5 days and drug withdrawal for 2 days, Day 7
  Tumor volume: 466 mm^3
[2]; 75 mg/kg oral, administration for 5 days and drug withdrawal for 2 days, Day 10
  Tumor volume: 753 mm^3
[2]; 75 mg/kg oral, administration for 5 days and drug withdrawal for 2 days, Day 12
  Tumor volume: 1006 mm^3
[2]; 75 mg/kg oral, administration for 5 days and drug withdrawal for 2 days, Day 14
  Tumor volume: 1532 mm^3
[2]; technical effects statement
  Efficacy in vivo (general statement): good efficacy in vivo
[3]
  Polymorph: Polymorph A

## CC(C)C[C@H](NC(=O)CNC(=O)c1cc(Cl)ccc1Cl)B(O)O [Ixazomib, reference compound]
[2]; Ixazomib 4 mg/kg, twice a week, Day 0
  Tumor volume: 134 mm^3
[2]; Ixazomib 4 mg/kg, twice a week, Day 3
  Tumor volume: 157 mm^3
[2]; Ixazomib 4 mg/kg, twice a week, Day 5
  Tumor volume: 193 mm^3
[2]; Ixazomib 4 mg/kg, twice a week, Day 7
  Tumor volume: 331 mm^3
[2]; Ixazomib 4 mg/kg, twice a week, Day 10
  Tumor volume: 634 mm^3
[2]; Ixazomib 4 mg/kg, twice a week, Day 12
  Tumor volume: 835 mm^3
[2]; Ixazomib 4 mg/kg, twice a week, Day 14
  Tumor volume: 1257 mm^3

Reference: patent US11345682B2, “Polymorph of HDAC6-selective inhibitor and application thereof” (CSTONE PHARMACEUTICALS (SUZHOU) CO., LTD., priority 2018, dated 2022)
